Assay results taken from PubChem BioAssay AID256 (DTP/NCI, 2004).
“And” between values parts separate entries of the source, which are not always exact repeats. Equal values may be shown once. Toxic doses and inconclusive results are not listed. How the source made its calls: active means survival T/C of 150% or more; inactive means T/C below 125% in these data.

System: CD2F1 mice, L1210 leukemia ip, survival T/C
Experiment: NCI In Vivo Anticancer Drug Screen. Data for tumor model L1210 Leukemia (intraperitoneal) in CD2F1 (CDF1) mice
Conditions: higher = longer survival
In short: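 Ratio T/C, where T is the treated-group value and C the vehicle-dosed control value, from mice implanted with a transplantable tumor.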

[1] = endpoint: mean survival time, dose: 150.0 mg/kg/injection, schedule: Q01DX001 (ip), vehicle: saline
[2] = endpoint: mean survival time, dose: 50.0 mg/kg/injection, schedule: Q01DX009 (ip), vehicle: saline with Tween-80
[3] = endpoint: mean survival time, dose: 100.0 mg/kg/injection, schedule: Q04DX003 (ip), vehicle: saline with Tween-80
[4] = endpoint: mean survival time, dose: 200.0 mg/kg/injection, schedule: Q01DX009 (ip), vehicle: saline with Tween-80
[5] = endpoint: mean survival time, dose: 400.0 mg/kg/injection, schedule: Q01DX009 (ip), vehicle: saline with Tween-80
[6] = endpoint: mean survival time, dose: 100.0 mg/kg/injection, schedule: Q01DX009 (ip), vehicle: saline with Tween-80
[7] = endpoint: mean survival time, dose: 25.0 mg/kg/injection, schedule: Q01DX009 (ip), vehicle: saline
[8] = endpoint: mean survival time, dose: 100.0 mg/kg/injection, schedule: Q04DX002 (ip), vehicle: saline
[9] = endpoint: mean survival time, dose: 200.0 mg/kg/injection, schedule: Q04DX002 (ip), vehicle: saline
[10] = endpoint: mean survival time, dose: 200.0 mg/kg/injection, schedule: Q04DX003 (ip), vehicle: saline with Tween-80

Measured: T/C

Nc1ncnc(N2C(=S)OC3C(O)C(CO)OC32)c1N (centres undefined)
inactive: endpoint: mean survival time, dose: 12.5 mg/kg/injection, schedule: Q01DX005 (ip), vehicle: water 92 % of control | endpoint: mean survival time, dose: 25.0 mg/kg/injection, schedule: Q01DX005 (ip), vehicle: water 88 % of control | endpoint: mean survival time, dose: 50.0 mg/kg/injection, schedule: Q01DX005 (ip), vehicle: water 95 % of control | endpoint: mean survival time, dose: 100.0 mg/kg/injection, schedule: Q01DX005 (ip), vehicle: water 95 % of control | endpoint: mean survival time, dose: 200.0 mg/kg/injection, schedule: Q01DX005 (ip), vehicle: water 90 % of control

O=C(OCC(F)(F)F)C(Cl)(Cl)Cl
inactive: endpoint: mean survival time, dose: 75.0 mg/kg/injection, schedule: Q01DX001 (ip), vehicle: saline 97 % of control | [1] 107 % of control | endpoint: mean survival time, dose: 300.0 mg/kg/injection, schedule: Q01DX001 (ip), vehicle: saline 107 % of control

c1ccc(C2=NN(c3ccccc3)C(c3ccccc3)C2NC2CCCCC2)cc1 (centres undefined)
inactive: endpoint: mean survival time, dose: 100.0 mg/kg/injection, schedule: Q04DX003 (ip), vehicle: acetone 93 % of control | endpoint: mean survival time, dose: 200.0 mg/kg/injection, schedule: Q04DX003 (ip), vehicle: acetone 92 % of control | endpoint: mean survival time, dose: 400.0 mg/kg/injection, schedule: Q04DX003 (ip), vehicle: acetone 97 % of control

O=C(O)Cc1c(Cl)cccc1[N+](=O)[O-]
inactive: endpoint: mean survival time, dose: 100.0 mg/kg/injection, schedule: Q01DX001 (ip), vehicle: other 116 % of control | endpoint: mean survival time, dose: 200.0 mg/kg/injection, schedule: Q01DX001 (ip), vehicle: other 101 % of control | endpoint: mean survival time, dose: 400.0 mg/kg/injection, schedule: Q01DX001 (ip), vehicle: other 104 % of control

CCCN(CCC)c1c([N+](=O)[O-])cc(C(N)=O)cc1[N+](=O)[O-]
inactive: endpoint: mean survival time, dose: 12.5 mg/kg/injection, schedule: Q01DX009 (ip), vehicle: saline with Tween-80 96 % of control | endpoint: mean survival time, dose: 25.0 mg/kg/injection, schedule: Q01DX009 (ip), vehicle: saline with Tween-80 96 % of control | [2] 90 % of control

Cc1ccc(C(=O)NN)cc1
inactive: endpoint: mean survival time, dose: 25.0 mg/kg/injection, schedule: Q04DX003 (ip), vehicle: saline with Tween-80 96 % of control | endpoint: mean survival time, dose: 50.0 mg/kg/injection, schedule: Q04DX003 (ip), vehicle: saline with Tween-80 96 % of control | [3] 95 % of control and 107 % of control

O=C(NCCO)c1cc2ccccc2o1
inactive: endpoint: mean survival time, dose: 100.0 mg/kg/injection, schedule: Q01DX001 (ip), vehicle: saline with Tween-80 93 % of control | endpoint: mean survival time, dose: 200.0 mg/kg/injection, schedule: Q01DX001 (ip), vehicle: saline with Tween-80 98 % of control | endpoint: mean survival time, dose: 400.0 mg/kg/injection, schedule: Q01DX001 (ip), vehicle: saline with Tween-80 90 % of control

NC(=O)c1nccnc1C(N)=O
inactive: endpoint: mean survival time, dose: 100.0 mg/kg/injection, schedule: Q01DX001 (ip), vehicle: Klucel (hydroxypropylcellulose) (HPC) 101 % of control | endpoint: mean survival time, dose: 200.0 mg/kg/injection, schedule: Q01DX001 (ip), vehicle: Klucel (hydroxypropylcellulose) (HPC) 108 % of control | endpoint: mean survival time, dose: 400.0 mg/kg/injection, schedule: Q01DX001 (ip), vehicle: Klucel (hydroxypropylcellulose) (HPC) 101 % of control

O=C(CNC(=O)Nc1ccc(F)cc1)NNC(=O)Nc1ccc(Cl)c([N+](=O)[O-])c1
inactive: [4] 92 % of control | [5] 88 % of control

C[Si](F)(c1cccc2ccccc12)c1cccc2ccccc12
inactive: [6] 93 % of control | [4] 98 % of control | [5] 96 % of control

C#CCOC(=O)NC1CCCCC1
inactive: endpoint: mean survival time, dose: 100.0 mg/kg/injection, schedule: Q04DX003 (ip), vehicle: Klucel (hydroxypropylcellulose) (HPC) 104 % of control | endpoint: mean survival time, dose: 200.0 mg/kg/injection, schedule: Q04DX003 (ip), vehicle: Klucel (hydroxypropylcellulose) (HPC) 105 % of control | endpoint: mean survival time, dose: 400.0 mg/kg/injection, schedule: Q04DX003 (ip), vehicle: Klucel (hydroxypropylcellulose) (HPC) 102 % of control

NC(=O)c1csc(COCC(O)CO)n1 (centres undefined)
inactive: endpoint: median survival time, dose: 33.0 mg/kg/injection, schedule: Q01DX009 (ip), vehicle: water 101 % of control | endpoint: median survival time, dose: 66.0 mg/kg/injection, schedule: Q01DX009 (ip), vehicle: water 103 % of control | endpoint: median survival time, dose: 132.0 mg/kg/injection, schedule: Q01DX009 (ip), vehicle: water 107 % of control | endpoint: median survival time, dose: 264.0 mg/kg/injection, schedule: Q01DX009 (ip), vehicle: water 101 % of control

COC(=O)N1C=Cc2ccccc2C1C#N (centres undefined)
inactive: [7] 89 % of control | endpoint: mean survival time, dose: 50.0 mg/kg/injection, schedule: Q01DX009 (ip), vehicle: saline 98 % of control | endpoint: mean survival time, dose: 100.0 mg/kg/injection, schedule: Q01DX009 (ip), vehicle: saline 88 % of control

CN(C)c1nc(N)cc(-c2ccncc2)n1
inactive: [8] 96 % of control | [9] 88 % of control

C1CC2CCC3CCCC4CCC(C1)C2C34 (centres undefined)
inactive: [2] 98 % of control | [6] 98 % of control | [3] 98 % of control | [4] 100 % of control | [10] 102 % of control

CC(NC(=O)c1cccnc1)C(=O)O (centres undefined)
inactive: endpoint: median survival time, dose: 25.0 mg/kg/injection, schedule: Q04DX003 (ip), vehicle: saline 105 % of control | endpoint: median survival time, dose: 50.0 mg/kg/injection, schedule: Q04DX003 (ip), vehicle: saline 115 % of control | endpoint: median survival time, dose: 100.0 mg/kg/injection, schedule: Q04DX003 (ip), vehicle: saline 94 % of control | endpoint: median survival time, dose: 200.0 mg/kg/injection, schedule: Q04DX003 (ip), vehicle: saline 94 % of control

O=C(C/C(=N\C(=S)Nc1cc(C(F)(F)F)ccc1Cl)NO)N1CCCC1
inactive: endpoint: median survival time, dose: 12.5 mg/kg/injection, schedule: Q01DX009 (ip), vehicle: saline with Tween-80 101 % of control | endpoint: median survival time, dose: 25.0 mg/kg/injection, schedule: Q01DX009 (ip), vehicle: saline with Tween-80 97 % of control and 105 % of control | endpoint: median survival time, dose: 50.0 mg/kg/injection, schedule: Q01DX009 (ip), vehicle: saline with Tween-80 102 % of control (2×) and 106 % of control | endpoint: median survival time, dose: 100.0 mg/kg/injection, schedule: Q01DX009 (ip), vehicle: saline with Tween-80 108 % of control and 109 % of control | endpoint: median survival time, dose: 200.0 mg/kg/injection, schedule: Q01DX009 (ip), vehicle: saline with Tween-80 121 % of control and 122 % of control and 123 % of control | endpoint: median survival time, dose: 300.0 mg/kg/injection, schedule: Q01DX009 (ip), vehicle: saline with Tween-80 86 % of control

O=S(=O)(O)c1cccnc1
inactive: [8] 94 % of control | [9] 94 % of control | endpoint: mean survival time, dose: 400.0 mg/kg/injection, schedule: Q04DX002 (ip), vehicle: saline 97 % of control

C[Si](C)(C)Oc1c(Cl)cc(Cl)cc1Cl
inactive: [6] 100 % of control | [4] 91 % of control | [5] 87 % of control

CS/C([S-])=N/N=C/c1ccccn1.[Cl][Pt+]
inactive: [3] 94 % of control | [10] 100 % of control

CCN(CC)c1ccc(N=Nc2c(C)nc(N)nc2-c2ccccc2)cc1
inactive: [1] 97 % of control

COc1cccc2c1[C@H]1CO[C@H]3C4C[C@H](C(=O)O)C([C@@H](C2)N13)N4C (some centres undefined)
inactive: endpoint: median survival time, dose: 0.31 mg/kg/injection, schedule: Q01DX005 (ip), vehicle: water 90 % of control | endpoint: median survival time, dose: 0.62 mg/kg/injection, schedule: Q01DX005 (ip), vehicle: water 101 % of control | endpoint: median survival time, dose: 1.25 mg/kg/injection, schedule: Q01DX005 (ip), vehicle: water 102 % of control | endpoint: median survival time, dose: 2.5 mg/kg/injection, schedule: Q01DX005 (ip), vehicle: water 112 % of control | endpoint: median survival time, dose: 5.0 mg/kg/injection, schedule: Q01DX005 (ip), vehicle: water 121 % of control

NNC1CC2CCC1C2 (centres undefined)
inactive: endpoint: mean survival time, dose: 12.5 mg/kg/injection, schedule: Q01DX009 (ip), vehicle: saline 95 % of control | [7] 93 % of control
